# Results reported in patent US20040209799A1, “JAK/STAT pathway inhibitors and the uses thereof” (priority 2000, published 2004).
# What was measured:
# chondrocytes = conditions: in vitro; cited from earlier work
# JAK3 mRNA = experiment: northern blot analysis of JAK3 expression in human articular chondrocytes; assay type: cell-based; conditions: 2 ng/ml for 24 hours, normal adult human articular chondrocytes in monolayer
# Experimental: Frozen chondrocyte cell strain HC30-0198 (normal human articular chondrocytes prepared as described in Example 1) was thawed, cultured in monolayer (second passage), and cultured to 5 days post confluence. Test cultures were rinsed in phosphate buffered saline (PBS), followed by addition of either; 1) recombinant human interleukin-1β (rhIL-1β) (R&D Systems, Minneapolis, Minn.) at 2 ng/ml for 24 hours in serum-free DMEM containing 1% antibiotic solution, or 2) serum-free DMEM containing 1% antibiotic solution only (control).
# RNA on the Northern blot was fixed to the membrane by using a Stratalinker® 1800 UV Crosslinker (Stratagene, La Jolla, Calif.).
# A 109-base pair human cDNA for JAK3 was generated by RT-PCR (see Example 2 above).
# Prehybridization and hybridization of the Northern blot was performed at 42° C. using a 1:1 dilution of 2× Prehybridization/Hybridization Solution (GIBCO/BRL, Gaithersburg, Md.) and formamide. After 15 hours of hybridization using the JAK3 DNA probe, the blot was successively washed two times in 2×SSC/0.1% SDS (15 minutes/wash at room temperature), and two times in 0.5×SSC/0.1% SDS (30 minutes/wash at 65° C.). The blot was allowed to air dry, and the radioactive signal was visualized using a Fujifilm BAS-1500 phosphorimager (Fuji Medical Systems, USA, Stamford, C1).
# JAK3 = target: T1, JAK3 (Homo sapiens, UniProt P52333); conditions: cited from earlier work
# T1 sequence (P52333 1-1124): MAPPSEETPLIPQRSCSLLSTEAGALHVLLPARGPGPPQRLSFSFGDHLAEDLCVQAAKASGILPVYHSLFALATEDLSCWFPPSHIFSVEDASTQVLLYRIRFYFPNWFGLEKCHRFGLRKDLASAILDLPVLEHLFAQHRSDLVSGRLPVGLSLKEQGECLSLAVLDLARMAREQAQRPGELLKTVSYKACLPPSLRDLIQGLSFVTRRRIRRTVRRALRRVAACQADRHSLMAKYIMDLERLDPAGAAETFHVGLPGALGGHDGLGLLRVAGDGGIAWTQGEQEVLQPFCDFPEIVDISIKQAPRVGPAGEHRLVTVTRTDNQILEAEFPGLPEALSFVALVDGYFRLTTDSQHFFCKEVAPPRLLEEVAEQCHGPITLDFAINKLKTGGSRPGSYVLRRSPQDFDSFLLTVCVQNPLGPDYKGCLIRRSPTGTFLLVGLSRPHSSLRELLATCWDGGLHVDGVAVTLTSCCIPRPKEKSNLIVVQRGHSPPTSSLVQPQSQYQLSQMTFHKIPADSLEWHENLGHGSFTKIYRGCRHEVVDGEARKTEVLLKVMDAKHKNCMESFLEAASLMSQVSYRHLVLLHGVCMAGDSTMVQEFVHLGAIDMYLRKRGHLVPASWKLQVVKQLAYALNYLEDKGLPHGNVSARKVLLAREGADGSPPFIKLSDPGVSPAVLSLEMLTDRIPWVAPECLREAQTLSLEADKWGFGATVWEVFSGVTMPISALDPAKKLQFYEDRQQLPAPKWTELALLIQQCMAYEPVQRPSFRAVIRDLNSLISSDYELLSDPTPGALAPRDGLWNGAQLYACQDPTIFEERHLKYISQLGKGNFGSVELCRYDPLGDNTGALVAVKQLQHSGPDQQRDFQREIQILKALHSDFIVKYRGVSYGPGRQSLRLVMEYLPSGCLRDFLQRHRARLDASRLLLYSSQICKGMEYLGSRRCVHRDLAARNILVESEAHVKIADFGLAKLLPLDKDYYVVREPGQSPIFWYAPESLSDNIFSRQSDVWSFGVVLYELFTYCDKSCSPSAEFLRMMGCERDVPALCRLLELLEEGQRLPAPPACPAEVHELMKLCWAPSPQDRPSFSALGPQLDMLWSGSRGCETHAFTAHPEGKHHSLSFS
# [1] = target: T2, JAK3 (Janus kinase 3) protein tyrosine kinase (Homo sapiens, UniProt P52333); experiment: poly (Glu, Tyr) 4:1 ELISA, JAK3; assay type: biochemical; conditions: inhibitors solubilized in DMSO, read-out: ec-50 (effective concentration for 50% inhibition) of JAK3
# T2 sequence (P52333 1-1124): T1 sequence (P52333 1-1124)
# Experimental: (§1) To further examine the inhibition characteristics of DBH (and its variants) to a variety of cellular components, a poly (Glu, Tyr) 4:1 ELISA was performed. Hymenialdisine (H), DBH (as marine sponge extracts: see Chipman and Faulkner, 1997), and three variant forms of synthetic DBH: the free base form of DBH (DBH-2FB), a trifluoroacetic acid salt form of DBH (DBH-2S), and a methanesulfonic acid salt form of DBH (DBH 1) were solubilized in DMSO, and tested for the ability to inhibit; ZAP-70 (ζ-associated polypeptide of 70 kDa) protein tyrosine kinase, BTK (Bruton's agarnrnaglobulinaemia tyrosine kinase), JAK3 (Janus kinase 3) protein tyrosine kinase, LCK (Lymphoid T-cell protein tyrosine kinase), and IGFR (Insulin-like growth factor receptor) protein tyrosine kinase.
# (§2) Maxisorb microtiter plates (Nalge Nunc International, Rochester, N.Y.) were coated with 1 mg/ml Poly(Glu,Tyr) 4:1 (Sigma, St. Louis, Mo.) solubilized in phosphate buffered saline (PBS), 0.02% sodium azide. On the day of the assay, microtiter plates were washed 4× with TBS-Tween (25 mM Tris pH 8.0, 150 mM NaCl, 0.05% Tween 20) using a Skatron plate washer (Skatron Instruments, Sterling, Va.). 200 μl of sterile blocking buffer (3% BSA in PBS, 0.02% sodium azide) was added to each well, and the microtiter plates were incubated at 37° C. for 1 hour. The blocking buffer was removed, the plates washed, and various concentrations of inhibitor were added in a 20 μl volume to the wells. 60 μl of the appropriate substrate mix was then added. Substrate mixes were prepared as described in Table 2:
# (§3) Following addition of the substrate mix, 20 μl of the test protein tyrosine kinase (in 1× assay buffer) was added. Kinase reactions were incubated 30 min at 37° C., followed by washes in the Skatron plate washer. 100 μl of biotinylated PT-66 anti-phosphotyrosine monoclonal antibody (Sigma, St. Louis, Mo.) (diluted 1:4000 in 0.5% BSA, sterile-filtered TBS) was added to each well, and incubated for an additional 30 minutes at 37° C. […] The samples were then read at 450 nm in a plate reader.
# [2] = target: T3, ZAP-70 (ζ-associated polypeptide of 70 kDa) protein tyrosine kinase (Homo sapiens, UniProt P43403); experiment: poly (Glu, Tyr) 4:1 ELISA, ZAP-70; assay type: biochemical; conditions: ec-50 values ranging from hundreds of micromolar to no inhibition (data not shown)
# T3 sequence (P43403 1-619): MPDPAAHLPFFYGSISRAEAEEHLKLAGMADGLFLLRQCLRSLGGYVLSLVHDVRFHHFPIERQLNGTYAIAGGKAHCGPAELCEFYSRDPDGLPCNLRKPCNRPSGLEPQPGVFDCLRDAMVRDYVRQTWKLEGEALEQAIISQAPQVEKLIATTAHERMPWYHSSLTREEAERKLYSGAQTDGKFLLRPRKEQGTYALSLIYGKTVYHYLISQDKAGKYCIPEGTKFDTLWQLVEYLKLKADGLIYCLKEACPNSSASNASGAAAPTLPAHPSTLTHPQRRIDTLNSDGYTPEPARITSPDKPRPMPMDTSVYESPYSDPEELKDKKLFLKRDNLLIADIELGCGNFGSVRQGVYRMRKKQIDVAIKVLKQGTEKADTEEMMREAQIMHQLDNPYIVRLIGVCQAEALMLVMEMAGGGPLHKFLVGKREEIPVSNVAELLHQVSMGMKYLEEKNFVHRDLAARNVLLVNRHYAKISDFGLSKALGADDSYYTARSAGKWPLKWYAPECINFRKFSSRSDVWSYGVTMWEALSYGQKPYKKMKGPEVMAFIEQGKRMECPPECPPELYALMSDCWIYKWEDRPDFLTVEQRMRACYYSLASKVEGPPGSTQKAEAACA
# Experimental: as §1, §2, §3
# [3] = target: LCK (Lymphoid T-cell protein tyrosine kinase) (Homo sapiens, UniProt P06239); experiment: poly (Glu, Tyr) 4:1 ELISA, LCK; assay type: biochemical; conditions: ec-50 values ranging from hundreds of micromolar to no inhibition (data not shown)
# Experimental: as §1, §2, §3
# [4] = target: BTK (Bruton's agarnrnaglobulinaemia tyrosine kinase) (Homo sapiens, UniProt Q06187); experiment: poly (Glu, Tyr) 4:1 ELISA, BTK; assay type: biochemical; conditions: ec-50 values ranging from hundreds of micromolar to no inhibition (data not shown)
# Experimental: as §1, §2, §3
# [5] = target: IGFR (Insulin-like growth factor receptor) protein tyrosine kinase (Homo sapiens, UniProt P08069); experiment: poly (Glu, Tyr) 4:1 ELISA, IGFR; assay type: biochemical; conditions: ec-50 values ranging from hundreds of micromolar to no inhibition (data not shown)
# Experimental: as §1, §2, §3
# [6] = test system: chondrocytes in culture and explants of articular cartilage; conditions: cited from earlier work
# LCK (Lymphoid T-cell protein tyrosine kinase), sequence (P06239 whole entry, species assumed): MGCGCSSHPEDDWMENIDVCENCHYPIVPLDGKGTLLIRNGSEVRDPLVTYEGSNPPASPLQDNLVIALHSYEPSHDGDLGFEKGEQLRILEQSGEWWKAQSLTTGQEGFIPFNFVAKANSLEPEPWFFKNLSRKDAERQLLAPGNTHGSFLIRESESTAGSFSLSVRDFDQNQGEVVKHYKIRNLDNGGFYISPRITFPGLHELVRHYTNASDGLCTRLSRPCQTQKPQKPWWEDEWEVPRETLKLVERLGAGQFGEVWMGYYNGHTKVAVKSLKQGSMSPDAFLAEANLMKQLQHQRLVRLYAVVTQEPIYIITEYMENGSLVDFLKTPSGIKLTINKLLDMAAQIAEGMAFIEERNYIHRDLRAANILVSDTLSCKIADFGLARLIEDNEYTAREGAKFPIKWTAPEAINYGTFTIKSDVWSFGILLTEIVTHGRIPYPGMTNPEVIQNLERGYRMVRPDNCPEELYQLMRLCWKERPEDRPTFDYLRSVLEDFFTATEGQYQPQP
# BTK (Bruton's agarnrnaglobulinaemia tyrosine kinase), sequence (Q06187 whole entry, species assumed): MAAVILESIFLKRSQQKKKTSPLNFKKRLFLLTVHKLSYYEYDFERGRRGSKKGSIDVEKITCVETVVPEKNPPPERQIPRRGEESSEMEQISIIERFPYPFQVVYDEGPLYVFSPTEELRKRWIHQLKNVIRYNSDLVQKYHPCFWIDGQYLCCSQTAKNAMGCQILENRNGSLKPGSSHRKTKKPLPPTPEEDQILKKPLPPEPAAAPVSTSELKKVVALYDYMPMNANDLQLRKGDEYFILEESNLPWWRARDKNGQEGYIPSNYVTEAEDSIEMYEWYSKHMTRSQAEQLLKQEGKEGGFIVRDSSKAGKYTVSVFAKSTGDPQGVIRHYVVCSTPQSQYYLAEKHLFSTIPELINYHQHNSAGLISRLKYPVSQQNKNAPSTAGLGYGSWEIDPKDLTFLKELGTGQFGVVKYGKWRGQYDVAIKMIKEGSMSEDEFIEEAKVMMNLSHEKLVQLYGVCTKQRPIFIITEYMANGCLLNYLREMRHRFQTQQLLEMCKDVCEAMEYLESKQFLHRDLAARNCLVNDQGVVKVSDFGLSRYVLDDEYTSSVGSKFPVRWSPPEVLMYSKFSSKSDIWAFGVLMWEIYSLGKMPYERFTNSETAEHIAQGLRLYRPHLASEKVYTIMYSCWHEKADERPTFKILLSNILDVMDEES
# IGFR (Insulin-like growth factor receptor) protein tyrosine kinase, sequence (P08069 31-1367): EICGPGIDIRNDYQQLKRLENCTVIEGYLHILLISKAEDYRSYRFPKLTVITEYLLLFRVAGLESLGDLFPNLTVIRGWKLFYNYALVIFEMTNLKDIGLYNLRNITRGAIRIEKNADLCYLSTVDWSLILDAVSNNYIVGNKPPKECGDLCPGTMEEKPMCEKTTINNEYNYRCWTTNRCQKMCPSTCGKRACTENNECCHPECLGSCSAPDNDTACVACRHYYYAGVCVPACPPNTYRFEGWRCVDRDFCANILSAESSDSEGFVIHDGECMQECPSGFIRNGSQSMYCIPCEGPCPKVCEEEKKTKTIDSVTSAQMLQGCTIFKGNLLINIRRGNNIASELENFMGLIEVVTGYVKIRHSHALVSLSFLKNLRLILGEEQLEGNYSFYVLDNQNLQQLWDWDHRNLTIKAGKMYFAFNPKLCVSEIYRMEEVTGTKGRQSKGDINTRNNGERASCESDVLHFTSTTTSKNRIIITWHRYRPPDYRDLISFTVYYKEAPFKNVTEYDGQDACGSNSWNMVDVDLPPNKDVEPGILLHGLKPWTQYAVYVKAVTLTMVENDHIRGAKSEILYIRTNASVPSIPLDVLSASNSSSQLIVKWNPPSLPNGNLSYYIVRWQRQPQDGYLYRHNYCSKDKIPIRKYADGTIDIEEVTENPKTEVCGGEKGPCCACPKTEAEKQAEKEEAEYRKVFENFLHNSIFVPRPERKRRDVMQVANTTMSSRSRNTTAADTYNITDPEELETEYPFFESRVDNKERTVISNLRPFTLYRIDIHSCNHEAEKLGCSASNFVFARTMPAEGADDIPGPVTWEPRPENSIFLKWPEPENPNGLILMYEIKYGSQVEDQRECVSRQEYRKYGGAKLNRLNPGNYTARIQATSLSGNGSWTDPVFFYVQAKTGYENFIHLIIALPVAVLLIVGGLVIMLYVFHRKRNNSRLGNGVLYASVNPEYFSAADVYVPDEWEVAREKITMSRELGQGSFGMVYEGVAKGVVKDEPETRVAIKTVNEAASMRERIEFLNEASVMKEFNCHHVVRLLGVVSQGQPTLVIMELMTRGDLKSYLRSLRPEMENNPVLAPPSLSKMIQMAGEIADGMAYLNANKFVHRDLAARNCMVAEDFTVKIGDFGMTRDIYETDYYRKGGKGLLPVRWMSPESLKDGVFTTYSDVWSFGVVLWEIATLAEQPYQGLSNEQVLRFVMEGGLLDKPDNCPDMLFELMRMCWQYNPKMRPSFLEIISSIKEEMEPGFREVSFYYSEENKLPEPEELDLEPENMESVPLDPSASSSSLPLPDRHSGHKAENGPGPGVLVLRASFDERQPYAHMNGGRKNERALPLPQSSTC
compound,measurement,setting,value
N#C/C(=C\c1ccc(O)c(O)c1)C(=O)NCCCCc1ccccc1 [tyrphostin AG 556],effect on cartilage degradation by chondrocytes,chondrocytes,reduce or prevent
rhIL-1β: recombinant human interleukin-1β (R&D Systems),effect on the level of JAK3 mRNA,JAK3 mRNA,neither increases nor decreases
"COc1cc(C(N)=O)c([N+](=O)[O-])cc1OC [4,5-dimethoxy-2-nitrobenzamide]",inhibition of JAK3,JAK3,specifically inhibit
"NC1=NC(=O)C(=C2CCNC(=O)c3[nH]c(Br)cc32)N1 [H, 4-(2-amino-4-oxo-2-imidazolin-5-ylidene)-2-bromo-4,5,6,7-tetrahydropyrrolo (2,3-c) azepine-8-one]",EC50,[1],2.6 to 10.7 µM
same,Inhibition of ZAP-70,[2],weak
same,Inhibition of LCK,[3],weak
same,Inhibition of BTK,[4],weak
same,Inhibition of IGFR,[5],weak
same,inhibition of IL-1 induced degradation of glycosaminoglycan and extracellular matrix,[6],inhibit
"O=C1NC(=O)c2cc(Nc3ccccc3)c(Nc3ccccc3)cc21 [DAPH, 4,5-dianilinophthalimide]",effect on cartilage degradation by chondrocytes,chondrocytes,reduce or prevent
CO[C@H]1[C@@H](OC)C[C@H](C)[C@@H](OC)C2=CC(=O)C=C(NC(=O)/C(C)=C/C=C\[C@H](OC)[C@@H](OC(N)=O)/C(C)=C/[C@@H]1C)C2=O [herbimycin A],effect on cartilage degradation by chondrocytes,chondrocytes,reduce or prevent
"COc1cc(C(=O)O)c([N+](=O)[O-])cc1OC [4,5-dimethoxy-2-nitrobenzoic acid]",inhibition of JAK3,JAK3,specifically inhibit
N#CC(C#N)=Cc1cc(O)c(O)c(O)c1 [tyrphostin AG 82],effect on cartilage degradation by chondrocytes,chondrocytes,reduce or prevent
O=c1c(-c2ccc(O)cc2)coc2cc(O)cc(O)c12 [genistein],effect on cartilage degradation by chondrocytes,chondrocytes,reduce or prevent
